Test results from patent publication US7303895B1 (priority 1999, dated 2007).

Columns and labels:
Type in all cases: cell-based
CTL1 in glioma cell C6 = target: T1, CTL1 in glioma cell C6 (Rattus norvegicus, UniProt Q8VII6, K645E/R267S); test: total absorption of choline by glioma C6 cells transiently transfected with CTL1pcDNA3; settings: hemicholinium-3; 48 hours after transfection; only C6-CTL1pcDNA3 cells, not empty-plasmid cells
T1 construct: expressed in transfected cells; host or cells: glioma C6 cells, transient transfection, vector pcDNA3
T1 sequence (Q8VII6 1-653 isoform Q8VII6-2 R267S/K645E): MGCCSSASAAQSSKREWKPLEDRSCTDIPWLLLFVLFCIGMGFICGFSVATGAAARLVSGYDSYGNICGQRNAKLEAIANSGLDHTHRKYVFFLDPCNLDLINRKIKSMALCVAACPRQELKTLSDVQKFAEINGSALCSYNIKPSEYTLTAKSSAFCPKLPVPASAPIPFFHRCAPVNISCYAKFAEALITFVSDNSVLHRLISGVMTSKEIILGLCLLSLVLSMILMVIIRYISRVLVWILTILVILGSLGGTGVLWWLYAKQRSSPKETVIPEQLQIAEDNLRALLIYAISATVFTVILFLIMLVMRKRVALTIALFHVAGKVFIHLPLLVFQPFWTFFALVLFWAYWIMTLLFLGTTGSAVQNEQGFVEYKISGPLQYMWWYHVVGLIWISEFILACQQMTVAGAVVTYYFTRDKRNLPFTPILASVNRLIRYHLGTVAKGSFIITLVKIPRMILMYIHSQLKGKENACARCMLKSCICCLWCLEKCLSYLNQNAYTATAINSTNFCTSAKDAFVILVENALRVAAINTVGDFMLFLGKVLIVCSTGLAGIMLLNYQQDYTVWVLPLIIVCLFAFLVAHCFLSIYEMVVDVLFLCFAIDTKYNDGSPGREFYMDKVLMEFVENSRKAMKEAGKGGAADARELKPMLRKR
From the text: FIGS. 8A-8C: Transient transfection of glioma cell C6 with the vector CTL1pcDNA3 described in FIG. 6.

N18 cells = test: capture of tritiated choline by N18 cells transiently transfected with rCTL1a/pcDNA3, rCTL1b/pcDNA3 or pcDNA3; settings: 10 μM of the substance; 24 hours after transfection; same in all three transfections (rCTL1a, rCTL1b, empty pcDNA3); result not shown
[1] = target: T2, mutant yeast transformed by 4.17 (truncated tCTL1) (Torpedo marmorata, UniProt Q9I9B9, G501V); test: saturable [3H]choline absorption by mutant yeast transformed with clone 4.17; settings: 1 μM HC-3, 30° C., 30 minutes
T2 construct: the suppressor, 4.17, whose first ATG corresponds to M471 of tCTLI; expressed in transfected cells; host or cells: Saccharomyces cerevisiae ctr ise URA3 mutant strain, plasmid pFL61
T2 sequence (Q9I9B9 471-646 G501V): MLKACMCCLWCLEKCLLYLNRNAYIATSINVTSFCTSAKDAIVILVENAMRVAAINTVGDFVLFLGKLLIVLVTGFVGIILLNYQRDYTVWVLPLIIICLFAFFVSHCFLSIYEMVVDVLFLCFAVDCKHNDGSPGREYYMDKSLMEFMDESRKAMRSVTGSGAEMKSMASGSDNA
Procedure: The transformed yeast was incubated at 30° C. for 30 minutes with 25 nM [3H]-choline.
The plasmids were isolated from colonies having a strong choline-dependent growth phenotype, and they were used to transform aliquot fractions of mutant yeast in order to eliminate the ctr reverse mutants and the yeast suppressor mutations.
The culture density was normalized by measuring the OD600.

**Q.** `C[N+]1(C)CCOC(O)(c2ccc(-c3ccc(C4(O)C[N+](C)(C)CCO4)cc3)cc2)C1.[Br-].[Br-]` (stereo not drawn) [HC-3, hemicholinium-3] was tested. Which “inhibition of total absorption of choline” value (CTL1 in glioma cell C6) did it give?
**A.** inhibition

**Q.** What about the “inhibition of capture of tritiated choline” value (N18 cells) of the same compound?
**A.** about 50%

**Q.** What about the “saturable [3H]choline absorption by the yeast transformed in 4.17” value [1] of the same compound?
**A.** inhibited
